Measured values: article PMC10482975 (Nature Communications, 2023)
Substitutions are numbered along the chain they refer to.

What was measured:
M3 mAChR WT = target: T1, M3 mAChR WT (Homo sapiens, UniProt P20309); assay: [3H]-NMS radioligand dissociation binding, M3 mAChR WT
T1 construct: expressed in transfected cells
Method: (§1) Flp-In Chinese hamster ovary (CHO) (Thermo Fisher Scientific) cells stably expressing mAChR WTs or mutant constructs were cultured in Dulbecco’s modified Eagle’s medium (DMEM, Invitrogen) containing 5% foetal bovine serum (FBS; ThermoTrace) and […] of hygromycin (Roche) in a humidified incubator (37 °C, 5% CO2). Upon reaching confluence, media was removed, cells were washed with phosphate buffered saline (PBS) and harvested from tissue culture flasks using versene (PBS with 0.2 g EDTA). Cells were then pelleted through centrifugation at 350 × g for three minutes followed by resuspension in DMEM + 5% FBS. Cells were then either plated for an assay or reseeded into a tissue culture flask.

M4 mAChR WT = target: T2, M4 mAChR WT (Homo sapiens, UniProt P08173); assay: [3H]-NMS radioligand dissociation binding, M4 mAChR WT; details: for [3H]-NMS binding remaining (0 min = 100), MEAN: M4 mAChR
T2 construct: expressed in transfected cells
T2 sequence (P08173 1-479): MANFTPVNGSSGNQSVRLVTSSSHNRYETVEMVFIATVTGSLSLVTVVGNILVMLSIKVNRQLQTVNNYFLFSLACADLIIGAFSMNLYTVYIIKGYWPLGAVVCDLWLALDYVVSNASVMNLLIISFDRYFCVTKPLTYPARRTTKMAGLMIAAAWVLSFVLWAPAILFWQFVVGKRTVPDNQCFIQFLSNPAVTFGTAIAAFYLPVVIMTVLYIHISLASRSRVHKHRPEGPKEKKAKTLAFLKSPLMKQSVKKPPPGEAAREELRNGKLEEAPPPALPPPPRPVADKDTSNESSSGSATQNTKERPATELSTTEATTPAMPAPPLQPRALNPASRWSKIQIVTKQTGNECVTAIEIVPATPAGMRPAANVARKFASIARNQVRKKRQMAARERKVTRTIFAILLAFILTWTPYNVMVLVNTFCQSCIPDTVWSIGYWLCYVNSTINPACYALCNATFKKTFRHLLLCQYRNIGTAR
Method: as §1

M5 mAChR WT = target: T3, M5 mAChR WT (Homo sapiens, UniProt P08912); assay: [3H]-NMS radioligand dissociation binding, M5 mAChR WT
T3 construct: expressed in transfected cells
T3 sequence (P08912 1-532): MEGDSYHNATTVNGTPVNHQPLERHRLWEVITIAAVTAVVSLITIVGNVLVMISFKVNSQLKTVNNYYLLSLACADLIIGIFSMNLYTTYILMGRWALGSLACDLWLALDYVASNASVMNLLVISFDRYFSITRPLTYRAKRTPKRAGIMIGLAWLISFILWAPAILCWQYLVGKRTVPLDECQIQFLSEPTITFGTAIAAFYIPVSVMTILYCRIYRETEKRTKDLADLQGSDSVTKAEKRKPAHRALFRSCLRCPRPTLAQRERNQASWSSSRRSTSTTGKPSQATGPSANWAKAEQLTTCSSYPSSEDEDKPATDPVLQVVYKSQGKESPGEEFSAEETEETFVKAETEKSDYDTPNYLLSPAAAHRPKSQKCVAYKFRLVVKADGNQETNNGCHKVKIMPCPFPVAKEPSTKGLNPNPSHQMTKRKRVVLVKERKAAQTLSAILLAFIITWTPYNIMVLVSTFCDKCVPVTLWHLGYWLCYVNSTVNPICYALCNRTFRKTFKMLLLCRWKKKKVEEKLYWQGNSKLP
Method: as §1

M4 mAChR F186A = target: T4, M4 mAChR F186A (Homo sapiens, UniProt P08173, F186A); assay: [3H]-NMS radioligand dissociation binding, M4 mAChR F186A; details: for [3H]-NMS binding remaining (0 min = 100), MEAN: M4 F186A mAChR
T4 construct: expressed in transfected cells
T4 sequence (P08173 1-479 F186A): T2 sequence (P08173 1-479) with F186A
Method: as §1

T1 sequence (P20309 whole entry): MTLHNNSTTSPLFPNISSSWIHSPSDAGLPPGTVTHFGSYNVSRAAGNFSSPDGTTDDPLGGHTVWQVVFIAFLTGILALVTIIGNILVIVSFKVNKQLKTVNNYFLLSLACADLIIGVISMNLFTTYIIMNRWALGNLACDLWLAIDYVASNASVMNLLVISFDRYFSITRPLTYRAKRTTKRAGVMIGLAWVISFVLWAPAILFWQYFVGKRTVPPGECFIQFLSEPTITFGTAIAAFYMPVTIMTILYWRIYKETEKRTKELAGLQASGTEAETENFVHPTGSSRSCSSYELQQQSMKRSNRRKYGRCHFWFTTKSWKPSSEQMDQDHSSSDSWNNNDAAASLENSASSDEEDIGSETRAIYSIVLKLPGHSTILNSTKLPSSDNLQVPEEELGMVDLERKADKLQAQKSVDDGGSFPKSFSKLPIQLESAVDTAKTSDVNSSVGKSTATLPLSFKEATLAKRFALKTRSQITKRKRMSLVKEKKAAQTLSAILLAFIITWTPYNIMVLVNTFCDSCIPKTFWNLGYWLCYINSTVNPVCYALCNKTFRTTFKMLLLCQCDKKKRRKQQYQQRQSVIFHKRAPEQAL

`CCCCCCOc1nsnc1C1=CCCN(C)C1` [xanomeline] was tested, and the IC50 (M3 mAChR WT) was 182 µM, the “allosteric effect on [3H]-NMS dissociation (in words)” value (M3 mAChR WT; M3 mAChR) was “modest” and the “[3H]-NMS binding remaining (0 min = 100), MEAN” value (shortened to “[3H]-NMS binding remaining”) (M3 mAChR WT; M3 mAChR, 10uM Atr + 10 μM Xano, 10 min) was 102.824. For the same molecule, the “[3H]-NMS binding remaining” value (M3 mAChR WT; M3 mAChR, 10uM Atr + 10 μM Xano, 15 min) was 94.4472, the “[3H]-NMS binding remaining” value (M3 mAChR WT; M3 mAChR, 10uM Atr + 10 μM Xano, 30 min) was 84.3079 and the “[3H]-NMS binding remaining” value (M3 mAChR WT; M3 mAChR, 10uM Atr + 10 μM Xano, 90 min) was 53.078. The “[3H]-NMS binding remaining” value (M3 mAChR WT; M3 mAChR, 10uM Atr + 10 μM Xano, 120 min) was 40.5004, the “[3H]-NMS binding remaining” value (M3 mAChR WT; M3 mAChR, 10uM Atr + 10 μM Xano, 210 min) was 20.6349 and the “[3H]-NMS binding remaining” value (M3 mAChR WT; M3 mAChR, 10uM Atr + 30 μM Xano, 10 min) was 103.273. The “[3H]-NMS binding remaining” value (M3 mAChR WT; M3 mAChR, 10uM Atr + 30 μM Xano, 15 min) was 95.5713, the “[3H]-NMS binding remaining” value (M3 mAChR WT; M3 mAChR, 10uM Atr + 30 μM Xano, 30 min) was 87.9383 and the “[3H]-NMS binding remaining” value (M3 mAChR WT; M3 mAChR, 10uM Atr + 30 μM Xano, 90 min) was 53.4947. The “[3H]-NMS binding remaining” value (M3 mAChR WT; M3 mAChR, 10uM Atr + 30 μM Xano, 120 min) was 41.606, the “[3H]-NMS binding remaining” value (M3 mAChR WT; M3 mAChR, 10uM Atr + 30 μM Xano, 210 min) was 24.8398 and the “[3H]-NMS binding remaining” value (M3 mAChR WT; M3 mAChR, 10uM Atr + 100uM Xano, 10 min) was 100.762. The “[3H]-NMS binding remaining” value (M3 mAChR WT; M3 mAChR, 10uM Atr + 100uM Xano, 15 min) was 94.0238, the “[3H]-NMS binding remaining” value (M3 mAChR WT; M3 mAChR, 10uM Atr + 100uM Xano, 30 min) was 90.7523 and the “[3H]-NMS binding remaining” value (M3 mAChR WT; M3 mAChR, 10uM Atr + 100uM Xano, 90 min) was 62.8848. For the same molecule, the “[3H]-NMS binding remaining” value (M3 mAChR WT; M3 mAChR, 10uM Atr + 100uM Xano, 120 min) was 45.8052, the “[3H]-NMS binding remaining” value (M3 mAChR WT; M3 mAChR, 10uM Atr + 100uM Xano, 210 min) was 29.7551 and the “[3H]-NMS binding remaining” value (M4 mAChR WT; 10uM Atr + 10 μM Xano, 30 min) was 87.1248. For the same molecule, the “[3H]-NMS binding remaining” value (M4 mAChR WT; 10uM Atr + 10 μM Xano, 90 min) was 63.7927, the “[3H]-NMS binding remaining” value (M4 mAChR WT; 10uM Atr + 10 μM Xano, 180 min) was 32.9493 and the “[3H]-NMS binding remaining” value (M4 mAChR WT; 10uM Atr + 10 μM Xano, 300 min) was 16.1247. For the same molecule, the “[3H]-NMS binding remaining” value (M4 mAChR WT; 10uM Atr + 30 μM Xano, 30 min) was 96.6093, the “[3H]-NMS binding remaining” value (M4 mAChR WT; 10uM Atr + 30 μM Xano, 90 min) was 68.5782 and the “[3H]-NMS binding remaining” value (M4 mAChR WT; 10uM Atr + 30 μM Xano, 180 min) was 42.1853. The “[3H]-NMS binding remaining” value (M4 mAChR WT; 10uM Atr + 30 μM Xano, 300 min) was 23.6351, the “[3H]-NMS binding remaining” value (M4 mAChR WT; 10uM Atr + 100uM Xano, 30 min) was 97.9496 and the “[3H]-NMS binding remaining” value (M4 mAChR WT; 10uM Atr + 100uM Xano, 60 min) was 79.6399. The “[3H]-NMS binding remaining” value (M4 mAChR WT; 10uM Atr + 100uM Xano, 180 min) was 54.7449, the “[3H]-NMS binding remaining” value (M4 mAChR WT; 10uM Atr + 100uM Xano, 300 min) was 34.2485 and the “effect on [3H]-NMS dissociation (in words)” value (M4 mAChR WT; wild-type M4 mAChR, increasing concentrations of xanomeline, saturating concentration of iperoxo) was “progressively slowed”. The “allosteric effect on [3H]-NMS dissociation (in words)” value (M5 mAChR WT) was “modest”, the “[3H]-NMS binding remaining” value (M5 mAChR WT; 10uM Atr + 10 μM Xano, 10 min) was 90.3151 and the “[3H]-NMS binding remaining” value (M5 mAChR WT; 10uM Atr + 10 μM Xano, 15 min) was 91.7238. The “[3H]-NMS binding remaining” value (M5 mAChR WT; 10uM Atr + 10 μM Xano, 30 min) was 85.9775, the “[3H]-NMS binding remaining” value (M5 mAChR WT; 10uM Atr + 10 μM Xano, 90 min) was 67.8458 and the “[3H]-NMS binding remaining” value (M5 mAChR WT; 10uM Atr + 10 μM Xano, 120 min) was 51.752. The “[3H]-NMS binding remaining” value (M5 mAChR WT; 10uM Atr + 10 μM Xano, 210 min) was 35.86, the “[3H]-NMS binding remaining” value (M5 mAChR WT; 10uM Atr + 30 μM Xano, 10 min) was 92.3387 and the “[3H]-NMS binding remaining” value (M5 mAChR WT; 10uM Atr + 30 μM Xano, 15 min) was 85.7238. The “[3H]-NMS binding remaining” value (M5 mAChR WT; 10uM Atr + 30 μM Xano, 30 min) was 100.331, the “[3H]-NMS binding remaining” value (M5 mAChR WT; 10uM Atr + 30 μM Xano, 90 min) was 61.0136 and the “[3H]-NMS binding remaining” value (M5 mAChR WT; 10uM Atr + 30 μM Xano, 120 min) was 51.9105. For the same molecule, the “[3H]-NMS binding remaining” value (M5 mAChR WT; 10uM Atr + 30 μM Xano, 210 min) was 31.039, the “[3H]-NMS binding remaining” value (M5 mAChR WT; 10uM Atr + 100uM Xano, 10 min) was 94.3264 and the “[3H]-NMS binding remaining” value (M5 mAChR WT; 10uM Atr + 100uM Xano, 15 min) was 90.317. The “[3H]-NMS binding remaining” value (M5 mAChR WT; 10uM Atr + 100uM Xano, 30 min) was 106.159, the “[3H]-NMS binding remaining” value (M5 mAChR WT; 10uM Atr + 100uM Xano, 90 min) was 76.4682 and the “[3H]-NMS binding remaining” value (M5 mAChR WT; 10uM Atr + 100uM Xano, 120 min) was 67.0445. For the same molecule, the “[3H]-NMS binding remaining” value (M5 mAChR WT; 10uM Atr + 100uM Xano, 210 min) was 42.1563, the “[3H]-NMS binding remaining” value (M4 mAChR F186A; 10uM Atr + 30 μM Xano, 30 min) was 78.1603 and the “[3H]-NMS binding remaining” value (M4 mAChR F186A; 10uM Atr + 30 μM Xano, 90 min) was 48.8248. For the same molecule, the “[3H]-NMS binding remaining” value (M4 mAChR F186A; 10uM Atr + 30 μM Xano, 180 min) was 47.3729, the “[3H]-NMS binding remaining” value (M4 mAChR F186A; 10uM Atr + 100uM Xano, 30 min) was 72.0364 and the “[3H]-NMS binding remaining” value (M4 mAChR F186A; 10uM Atr + 100uM Xano, 90 min) was 60.4086. The “[3H]-NMS binding remaining” value (M4 mAChR F186A; 10uM Atr + 100uM Xano, 180 min) was 46.0676, the “[3H]-NMS binding remaining” value (M4 mAChR F186A; 10uM Atr + 100uM Xano, 300 min) was 23.3758 and the “effect on [3H]-NMS dissociation (in words)” value (M4 mAChR F186A; M4 mAChR F186A mutant) was “no longer retarded”.
